According to US20260007756A1, “COMPOUND AND USE THEREOF” (COHERENT BIOPHARMA (SUZHOU) LIMITED, priority 2022, published 2026):
pIC50: −log10 of the molar value.

Key:
[1] = Solubility study in PBS; format: physicochemical; conditions: aqueous buffer, thermodynamic from solid; PBS (pH 7.2 to 7.4); read-out: Solubility, concentration
Method: The mixture was vortexed for 2 min until the solid was dissolved. The solubility was calculated as: C=m/V, C: concentration, m: sample weight, V: PBS total volume.

[2] = tested on: A549; test: Expansion inhibition of tumor cells (Example 7, CCK-8); format: cell-based; conditions: Homo sapiens, A549 (no detectable FOLR1 or PSMA expression), 72 h
Method: (§1) Samples were serially diluted with medium (serially 5-fold diluted from 10 μM) to 9 concentrations. […] Negative and blank controls were set.
(§2) A CCK-8 developing solution was added at 10 μL/well (10% of the liquid volume in the wells). The plates were incubated at 37° C. for a proper time (the OD value was controlled within the range of 1.0-2.5 as possible). The plate covers were removed, and the 96-well plates were loaded on a microplate reader (Molecular Devices SpectraMax iD5) to read the measurement at 450 nm.

[3] = tested on: HepG2; test: as above; format: cell-based; conditions: Homo sapiens, HepG2 (no detectable FOLR1 or PSMA expression), 72 h
Method: as §1, §2

[4] = tested on: NCI-H460; test: as above; format: cell-based; conditions: Homo sapiens, NCI-H460 (no detectable FOLR1 or PSMA expression), 72 h
Method: as §1, §2

[5] = tested on: PC-3; test: as above; format: cell-based; conditions: Homo sapiens, PC-3 (no detectable FOLR1 or PSMA expression), 72 h
Method: as §1, §2

[6] = tested on: human breast cancer MDA-MB-231 cell subcutaneous xenograft; test: Pharmacodynamic assessment, MDA-MB-231 xenograft model; format: in vivo; conditions: 4 mg/kg iv biw×3
Source text: Objective: Pre-clinical pharmacodynamic study of test compounds CR20274, CR20282, and CR20285 in BALB/c nude mouse model with human breast cancer MDA-MB-231 cell subcutaneous xenograft.
(§3) Procedures: MDA-MB-231 tumor mass was grafted subcutaneously at the right axilla of the mice, and the mice were randomized after the mean tumor volume was 200 mm^3. After administration, the animals were monitored daily for health conditions and death, and the routine examinations included observation of the effect on tumor growth and the effect of the treatment on the daily performance of the animals, such as behavioral activities, food and water intake, weight changes (measured once every other day), appearance, or other abnormal conditions. Whether the tumor growth was inhibited or delayed or the tumor was cured was also observed. The tumor volume was measured periodically. The tumor volume was calculated using the following formula: V=1/2×(a×b^2), where a and b denote the long diameter and short diameter of the tumor, respectively. The calculation formula for the tumor growth inhibition, TGI (%), is TGI %=(1−T/C)×100% (T and C are the mean tumor volume of the treatment group and control group, respectively, at a particular time point).

[7] = tested on: human prostate cancer 22RV1 cell subcutaneous xenograft tumor; test: Pharmacodynamic assessment, 22RV1 xenograft model; format: in vivo; conditions: 4 mg/kg iv biw×3, day 31 after grouping
Source text: Objective: Pre-clinical pharmacodynamic study of compounds for treating BALB/c nude mouse model with 22RV1 cell subcutaneous xenograft tumor (overexpressing PSMA).
as §3, with “22RV1” for “MDA-MB-231”, “back” for “axilla”, “150” for “200”, “respectively.” for “respectively. The calculation formula for the tumor growth inhibition, TGI (%), is TGI %=(1−T/C)×100% (T and C are the mean tumor volume of the treatment group and control group, respectively, at a particular time point).”

[8] = tested on: human prostate cancer C4-2 cell subcutaneous xenograft tumor; test: Pharmacodynamic assessment, C4-2 xenograft model; format: in vivo, NCG mouse; conditions: 4 mg/kg i.v biw×3, day 23 after grouping
Source text: Objective: Pre-clinical assessment of the efficacy of compounds for treating NCG mouse model with C4-2 cell subcutaneous xenograft tumor (overexpressing PSMA).
(§4) Procedures: C4-2 cells were subcutaneously grafted at the right back of the mice, and the mice were randomized when the mean tumor volume reached 100-150 mm^3. After the administration, the routine monitoring included the effect on tumor growth and the effect of treatment on the normal behavior of the animals, specifically the activity, food and water intake, weight gain or loss, the eyes, the hair, and other abnormal conditions. Clinical symptoms observed during the study were recorded in the raw data. After the administration was started, the body weight and tumor size of the mice were measured periodically. The tumor volume was calculated using the following formula: V=1/2×(a×b^2), where a and b denote the long diameter and short diameter of the tumor, respectively.

[9] = tested on: HT-29 cell subcutaneous xenograft tumor; test: Pharmacodynamic assessment, HT-29 xenograft model; format: in vivo, BALB/c nude mouse
Source text: Objective: Pre-clinical assessment of the efficacy of CR202 series of compounds for treating BALB/c nude mouse model with HT-29 cell subcutaneous xenograft tumor.
as §4, with “HT-29” for “C4-2”

[10] = Single-dose PK assessment, tumor concentration in HT-29 xenograft mice; format: in vivo, BALB/c nude male mouse; conditions: 2 mg/kg CR20274 single tail vein injection, 5 min
[11] = 2 mg/kg i.v BIW×3, day 25 after grouping
[12] = 4 mg/kg i.v BIW×3, day 25 after grouping

**Q.** For `CC[C@@H]1C(=O)N(C)c2cnc(Nc3ccc(-c4cn([C@H]5CC[C@@H](NCCOCCC#Cc6cccc7c6CN(C6CCC(=O)NC6=O)C7=O)CC5)nn4)cc3OC)nc2N1C1CCCC1` (stereo partly drawn) [CR20274], which solubility at 2 min [1] is on record?
**A.** < 900 µg/mL

**Q.** What about the pIC50 [2] of the same molecule?
**A.** 6.91

**Q.** And the pIC50 [3]?
**A.** 6.97

**Q.** What about the pIC50 [4] of the same molecule?
**A.** 6.50

**Q.** What about the pIC50 [5] of the same molecule?
**A.** 6.99

**Q.** And the “Anti-tumor effect” value [6]?
**A.** no anti-tumor effect

**Q.** And the Mean tumor volume [7]?
**A.** 1274.47 mm^3

**Q.** What about the TGI [7] of the same molecule?
**A.** 31.55%

**Q.** What about the Mean tumor volume [8] of the same molecule?
**A.** 2198.07 mm^3

**Q.** What about the TGI [8] of the same molecule?
**A.** −25.70%

**Q.** And the Mean tumor volume [9, 11]?
**A.** 1575.84 mm^3

**Q.** What about the TGI [9, 11] of the same molecule?
**A.** 24.23%

**Q.** And the Mean tumor volume [9, 12]?
**A.** 1316.64 mm^3

**Q.** And the TGI [9, 12]?
**A.** 36.69%

**Q.** And the “Concentration of CR20274 in tumors (C2)” value [10]?
**A.** 0.227 nmol/g
